Test results published in patent US20110280940A1, “Di-Vanilloyl And Tri-Vanilloyl Derivatives For Use In Anti-Cancer Therapy” (priority 2008, published 2011).

How the values were obtained:
pfGSK3 = pfGSK3 (Plasmodium falciparum, UniProt O77344); assay: Kinase activity assay, pfGSK3; format: biochemical; details: 10 μM, 1% DMSO, 15 μM ATP; residual activity
Protocol: Buffer A: 10 mM MgCl2, 1 mM EGTA, 1 mM DTT, 25 mM Tris-HCl pH 7.5, 50 μg heparin/ml. Buffer C: 60 mM β-glycerophosphate, 15 mM p-nitrophenylphosphate, 25 mM Mops (pH 7.2), 5 mM EGTA, 15 mM MgCl2, 1 mM DTT, 1 mM sodium vanadate, 1 mM phenyl phosphate.
Kinase activities were assayed in Buffer A or C, at 30° C., at a final ATP concentration of 15 μM. Blank values were subtracted and activities expressed in % of the maximal activity, i.e. in the absence of inhibitors. Controls were performed with appropriate dilutions of DMSO.

WI38 normal fibroblasts = assay: Cellular imaging (quantitative videomicroscopy), global growth ratio, WI38; format: cell-based, human; details: 50 μM, 72 h
Excerpt: As the MTT test is based on the mitochondria functions, we also investigated the effects of the di- and tri-vanilloyl derivatives according to the invention on cell proliferation, migration and morphology by means of a cellular imaging approach (Debeir et al., Cytometry 60:29-40, 2004; Debeir et al., IEEE Trans Med Imaging 24:697-711, 2005) either in the human U373-MG glioma cell line, which is apoptosis-resistant but autophagy-sensitive (Lefranc F et al., Neurosurgery 2008) and in the human A549 non-small-cell-lung cancer cell line, which is apoptosis-resistant and autophagy-resistant (Mijatovic T et al., Neoplasia 2006, May; 8(5):402-12).
Investigations have also been performed in human normal fibroblasts (WS1 and WI38—see Tables 4 and 5). Cellular imaging relied on the use of computer-assisted phase-contrast microscopy making possible to film the behaviour of living cells in culture dishes for several days. […]
The behaviour of the cells, in terms of morphology, growth and death were thus investigated. The effect on the overall growth was measured by counting the number of cells on the first (0 h) and the last image (72 h) of each film. […] The ratio GGRtreated cells/GGRcontrol cells, was further calculated thereby obtaining a value that describes the effect of compounds of the present invention on the overall cell growth. […]

255 protein kinases = assay: Kinase inhibition profile of DLT95-Cl at 20 μM (33 PanQinase); format: biochemical, human; details: over the 255 kinases screened
Protocol: In view of the results in FIG. 5 and Table 7, the inventors performed a broader analysis on impairment of 255 protein kinases by DLT95-Cl compound of the invention.
255 kinases where tested with DLT95-Cl at 20 μM to establish the kinase inhibition profile of the compound.
The kinase inhibition profile of DLT95-Cl at 20 μM was determined using 255 protein kinases. Residual activity values were measured by testing each compound at one concentration in duplicate in each kinase assay. A radiometric protein kinase assay (33 PanQinase®Activity Assay) was used for measuring the kinase activity of 250 protein kinases. All kinase assays were performed in 96-well flashPlates™ from Perkin Elmer (Boston, Mass., USA) in a 50 μl reaction volume. […]
Incorporation of ^33Pi (counting of “cpm”) was determined with a microplate scintillation counter (Microbeta, Wallac).
For each kinase, the median value of the cpm of three wells with complete reaction cocktails, but without kinase, was defined as “low control” (n=2). This value reflects unspecific binding of radioactivity to the plate in the absence of protein kinase but in the presence of the substrate. […] The residual activity (in %) for each compound well was calculated by using the following formula: Res. Activity (%)=100×[(cpm of compound−low control)/(high control−low control)]

pfGSK3, sequence (O77344 1-440): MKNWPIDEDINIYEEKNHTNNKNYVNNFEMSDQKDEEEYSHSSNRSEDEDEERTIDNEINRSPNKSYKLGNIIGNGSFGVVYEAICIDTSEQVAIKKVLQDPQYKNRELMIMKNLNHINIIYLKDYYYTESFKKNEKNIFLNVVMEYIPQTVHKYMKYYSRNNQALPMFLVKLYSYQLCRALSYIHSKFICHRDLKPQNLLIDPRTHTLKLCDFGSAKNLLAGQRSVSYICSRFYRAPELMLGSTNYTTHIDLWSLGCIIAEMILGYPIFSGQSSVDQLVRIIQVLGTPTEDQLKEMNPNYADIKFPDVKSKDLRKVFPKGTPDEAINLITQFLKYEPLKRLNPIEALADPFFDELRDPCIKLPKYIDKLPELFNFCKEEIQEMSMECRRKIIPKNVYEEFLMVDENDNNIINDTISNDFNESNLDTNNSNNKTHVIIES

COc1cc(C(=O)OCCOC(=O)c2ccc(O)c(OC)c2)ccc1O [DLT1, Ethane-1,2-diyl bis-(4-hydroxy-3-methoxybenzoate)]
% ENZYMATIC ACTIVITY, pfGSK3 (pfGSK3): 92% | Global Grow Ratio Treated/Ct (GGR T/Ct) determined by Video Quantitative microscopy, WI38 (WI38 normal fibroblasts): 0.8

O=C(OCc1cc(COC(=O)c2ccc(O)c(Cl)c2)cc(COC(=O)c2ccc(O)c(Cl)c2)c1)c1ccc(O)c(Cl)c1 [DLT95-Cl, [3,5-bis[(4-hydroxy-3-chloro-benzoyl)oxymethyl]phenyl]methyl 4-hydroxy-3-chloro-benzoate]
number of kinases whose activity is ≧50% impaired (255 protein kinases): 249
